Laboratory results taken from US20220202964A1, “HEPARANASE COMPOUNDS AND METHODS OF USE” (University of Florida Research Foundation, Incorporated, priority 2019, published 2022).
Read-outs that look alike come from different tables or passages of the source.

Columns and labels:
heparanase [1] = target: T1, heparanase (Homo sapiens, UniProt Q9Y251); assay: Activation of compounds by recombinant heparanase (fluorescence response); format: biochemical; settings: 5 μM compound, 1 μg heparanase, 40 mM NaOAc buffer (pH 5.0), 37° C., λex/em=365 nm/455 nm
T1 sequence (Q9Y251 36-543): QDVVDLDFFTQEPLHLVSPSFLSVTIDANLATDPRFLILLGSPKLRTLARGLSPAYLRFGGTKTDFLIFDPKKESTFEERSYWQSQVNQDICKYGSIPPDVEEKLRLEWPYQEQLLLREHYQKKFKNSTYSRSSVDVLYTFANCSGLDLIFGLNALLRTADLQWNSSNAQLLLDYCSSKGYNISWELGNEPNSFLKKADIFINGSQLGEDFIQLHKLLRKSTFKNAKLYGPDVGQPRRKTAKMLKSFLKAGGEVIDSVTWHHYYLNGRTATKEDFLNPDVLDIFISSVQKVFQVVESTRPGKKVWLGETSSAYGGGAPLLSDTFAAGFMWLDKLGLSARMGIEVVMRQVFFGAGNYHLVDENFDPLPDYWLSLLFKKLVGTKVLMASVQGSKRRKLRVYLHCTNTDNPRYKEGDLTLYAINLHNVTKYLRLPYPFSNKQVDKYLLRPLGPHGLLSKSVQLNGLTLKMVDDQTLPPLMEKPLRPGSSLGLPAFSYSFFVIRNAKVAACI
Procedure: To a solution of 20 μL, of 50 μM compound 1 (HADP) and 160 μL 40 mM NaOAc (pH=5.0) was added 20 μL, 0.1 μg/μL heparanase to obtain 5 μM 1 (HADP) with 2 μg heparanase solution. After incubation at 37° C. for 2 h, the reaction solution was transferred to quartz cuvettes to measure absorbance or fluorescence. Absorbance spectrum scan range from 250 nm to 500 nm (1 nm increment). fluorescence spectrum setting: λex=365 nm, Slit Width 2.5 nm. Emission was record from 400 nm to 600 nm, Slit Width 5 nm. Absorption spectra were recorded on Shimadzu UV-2700 UV-VIS Spectrophotometer. Fluorescence spectra were recorded on Fluorolog TAU-3 Spectrofluorometer with a xenon lamp (Jobin Yvon-Spex, Instruments S. A., Inc.)
Fluorescence micro cells was charged with 20 μL, of 50 μM compound 1 (HADP) and 160 μL 40 mM NaOAc (pH=5.0). Then 20 μL, 0.05 μg/μL heparanase was added to the above solution. Fluorescence spectra were recorded from 0 min to 3 h. fluorescence spectrum setting: λex=365 nm, Slit Width 2.5 nm. Emission was record from 400 nm to 600 nm, Slit Width 5 nm.
To a solution of 20 μL, of 50 μM each compound and 160 μL, 40 mM NaOAc (pH=5.0) was added 20 μL, 0.05 μg/μL heparanase to obtain 5 μM each compound with 1 μg heparanase solution in 96-well microplate. Each compound was performed in triplicate. Then the microplate was sealed with sealing film and incubated at 37° C. Fluorescence intensity was recorded on Spectramax M5 Multimode plate reader (Molecular Devices, USA) at each timepoint. λex/em=365 nm/455 nm.
5 μM compound 1 (HADP) was incubated with various biological species at the indicated amount/concentration in 96-well microplate. Cysteine (5 mM), Glutathione (5 mM), H2O2 (100 μM), Esterase, Chondroitinase ABC, Hyaluronidase, Lysozyme, β-Glucuronidase, β-Glucosidase (5 μg each) and heparanase (2 μg). For Chondroitinase ABC and Hyaluronidase, 50 μg was also tested. Each sample was performed in triplicates. Then the microplate was sealed with sealing film and incubated at 37° C. for 4 hours. Fluorescence intensity was recorded on Spectramax M5 Multimode plate reader (Molecular Devices, USA). λex/em=365 nm/455 nm.

heparanase [2] = target: T1, heparanase; assay: HPLC analysis of compounds 1-4 with heparanase; format: biochemical; settings: 5 μM, heparanase 1 μg, 4 hours, 37° C., NaOAc pH 5.0
Procedure: Heparanase (1 μg, 20 μL) was added to the compounds 1-4 solution (180 μL, 5 μM) in 40 mM NaOAc buffer (pH 5.0) and the mixture was incubated for 4 hours at 37° C. The resulting mixtures were injected into HPLC for analysis. HPLC analysis was performed under the following conditions—mobile phase A: water with 0.1% TFA; B: acetonitrile with 0.1% TFA; 0-20 min: gradient elution, 25-95% B. The trace was monitored by DAD detector at 315 nm.

[3] = pH profile of fluorescence / pKa; format: physicochemical; settings: hydrolytic product of HADP, fluorescence vs pH
Procedure: So, pH profiles of the fluorophore DiFMU and Compound 1 (HADP) were evaluated. […] In contrast, the pKa of 4-methylumbelliferone is ca. 7.8. […] Moreover, the introduction of the fluorine substituents increased the quantum yield and improved the photostability, enabling highly sensitive detection for heparanase.

heparanase [4] = target: T1, heparanase; settings: substrate for heparanase, comparison value; cited from earlier work
[5] = stated for comparison; cited from earlier work

Row | Compound | fluorescence response towards heparanase (heparanase [1]) | cleavage by heparanase (HPLC trace) (heparanase [2]) | also measured
1 | (2S,3S,4R,5R,6S)-6-((8-(difluoromethyl)-4-methyl-2-oxo-2H-chromen-7-yl)oxy)-3-(((2R,3R,4R,5S,6R)-3-((hydrosulfonyloxy)amino)-4,5-dihydroxy-6-(hydroxymethyl)tetrahydro-2H-pyran-2-yl)oxy)-4,5-dihydroxytetrahydro-2H-pyran-2-carboxylic acid [Compound 3] | very slight fluorescence enhancement | could not be cleaved by heparanase | 
2 | Cc1cc(=O)oc2c(F)c(O)c(F)cc12 [DiFMU, 6,8-difluoro-7-hydroxy-4-methylcoumarin, reference compound] |  |  | pKa [3]: ~4.7
3 | CO[C@H]1O[C@H](COS(=O)(=O)O)[C@@H](O[C@@H]2O[C@@H](C(=O)O)[C@@H](O[C@H]3O[C@H](COS(=O)(=O)O)[C@@H](O[C@@H]4O[C@H](C(=O)O)[C@@H](O[C@H]5O[C@H](COS(=O)(=O)O)[C@@H](O)[C@H](O)[C@H]5NS(=O)(=O)O)[C@H](O)[C@H]4O)[C@H](OS(=O)(=O)O)[C@H]3NS(=O)(=O)O)[C@H](O)[C@H]2OS(=O)(=O)O)[C@H](O)[C@H]1NS(=O)(=O)O [fondaparinux] |  |  | Km (heparanase [4]): 46 µM
4 | (2S,3S,4R,5R,6S)-3-(((2R,3R,4R,5S,6R)-4,5-dihydroxy-6-((sulfooxy)methyl)-3-(((E)-trioxidaneyl-14-sulfaneylidene)amino)tetrahydro-2H-pyran-2-yfloxy)-4,5-dihydroxy-6-((4-methyl-2-oxo-2H-chromen-7-yl)oxy)tetrahydro-2H-pyran-2-carboxylic acid [Compound 4] | could not be activated by heparanase | could not be cleaved by heparanase | 
5 | Cc1cc(=O)oc2cc(O)ccc12 [4-methylumbelliferone] |  |  | pKa [5]: ca. 7.8
